Legend:
Test in all cases: kinase profiling, radioactive filter binding assay
Format in all cases: biochemical
AMPK = settings: 0.1 µM compound, assay duplicates
Procedure: (§1) The used method was a radioactive filter binding assay using ^33P ATP, for details see references. The substances were dissolved in DMSO at tested concentration of 0.1 µM. The mean percentage residual kinase activity and standard deviations of assay duplicates were determined. Analyses were performed by the International Center for Kinase Profiling at the University of Dundee, UK.

CHK2 = CHK2 (Homo sapiens, UniProt O96017); settings: 0.1 µM compound, assay duplicates; read-out: residual activity of CHK2, mean percentage activity
Procedure: as §1

p38s MAPK = p38s MAPK (Homo sapiens, UniProt O15264); settings: 0.1 µM compound, assay duplicates; read-out: residual activity of p38s MAPK, mean percentage activity
Procedure: as §1

MNK1 = MNK1 (Homo sapiens, UniProt Q9BUB5); settings: 0.1 µM compound, assay duplicates; read-out: residual activity of MNK1, mean percentage activity
Procedure: as §1

YES1 = YES1 (Homo sapiens, UniProt P07947); settings: 0.1 µM compound, assay duplicates; read-out: residual activity of YES1, mean percentage activity
Procedure: as §1

PAK5 = PAK5 (Homo sapiens, UniProt Q9P286); settings: 0.1 µM compound, assay duplicates; read-out: residual activity of PAK5, mean percentage activity
Procedure: as §1

PKBb = PKBb (Homo sapiens, UniProt P31751); settings: 0.1 µM compound, assay duplicates; read-out: residual activity of PKBb, mean percentage activity
Procedure: as §1

DYRK3 = DYRK3 (Homo sapiens, UniProt O43781); settings: 0.1 µM compound, assay duplicates; read-out: residual activity of DYRK3, mean percentage activity
Procedure: as §1

P38b MAPK = P38b MAPK (Homo sapiens, UniProt Q15759); settings: 0.1 µM compound, assay duplicates; read-out: residual activity of P38b MAPK, mean percentage activity
Procedure: as §1

SRPK1 = SRPK1 (Homo sapiens, UniProt Q96SB4); settings: 0.1 µM compound, assay duplicates; read-out: residual activity of SRPK1, mean percentage activity
Procedure: as §1

BRSK2 = BRSK2 (Homo sapiens, UniProt Q8IWQ3); settings: 0.1 µM compound, assay duplicates; read-out: residual activity of BRSK2, mean percentage activity
Procedure: as §1

RSK1 = RSK1 (Homo sapiens, UniProt Q15418); settings: 0.1 µM compound, assay duplicates; read-out: residual activity of RSK1, mean percentage activity
Procedure: as §1

PRAK = PRAK (Homo sapiens, UniProt Q8IW41); settings: 0.1 µM compound, assay duplicates; read-out: residual activity of PRAK, mean percentage activity
Procedure: as §1

MNK2 = MNK2 (Homo sapiens, UniProt Q9HBH9); settings: 0.1 µM compound, assay duplicates; read-out: residual activity of MNK2, mean percentage activity
Procedure: as §1

EPH-B3 = EPH-B3 (Homo sapiens, UniProt P54753); settings: 0.1 µM compound, assay duplicates; read-out: residual activity of EPH-B3, mean percentage activity
Procedure: as §1

Aurora B = Aurora B (Homo sapiens, UniProt Q96GD4); settings: 0.1 µM compound, assay duplicates; read-out: residual activity of Aurora B, mean percentage activity
Procedure: as §1

PDK1 = PDK1 (Homo sapiens, UniProt O15530); settings: 0.1 µM compound, assay duplicates; read-out: residual activity of PDK1, mean percentage activity
Procedure: as §1

CK1 = CK1 (Homo sapiens, UniProt P48730); settings: 0.1 µM compound, assay duplicates; read-out: residual activity of CK1, mean percentage activity
Procedure: as §1

CAMK1 = CAMK1 (Homo sapiens, UniProt Q14012); settings: 0.1 µM compound, assay duplicates; read-out: residual activity of CAMK1, mean percentage activity
Procedure: as §1

S6K1 = S6K1 (Homo sapiens, UniProt P23443); settings: 0.1 µM compound, assay duplicates; read-out: residual activity of S6K1, mean percentage activity
Procedure: as §1

MARK3 = MARK3 (Homo sapiens, UniProt P27448); settings: 0.1 µM compound, assay duplicates; read-out: residual activity of MARK3, mean percentage activity
Procedure: as §1

PIM3 = PIM3 (Homo sapiens, UniProt Q86V86); settings: 0.1 µM compound, assay duplicates; read-out: residual activity of PIM3, mean percentage activity
Procedure: as §1

DYRK2 = DYRK2 (Homo sapiens, UniProt Q92630); settings: 0.1 µM compound, assay duplicates; read-out: residual activity of DYRK2, mean percentage activity
Procedure: as §1

PAK6 = PAK6 (Homo sapiens, UniProt Q9NQU5); settings: 0.1 µM compound, assay duplicates; read-out: residual activity of PAK6, mean percentage activity
Procedure: as §1

TBK1 (DU12569) = TBK1 (DU12569) (Homo sapiens, UniProt Q9UHD2); settings: 0.1 µM compound, assay duplicates; read-out: residual activity of TBK1 (DU12569), mean percentage activity
Procedure: as §1

PHK = settings: 0.1 µM compound, assay duplicates
Procedure: as §1

MAPKAP-K2 = MAPKAP-K2 (Homo sapiens, UniProt P49137); settings: 0.1 µM compound, assay duplicates; read-out: residual activity of MAPKAP-K2, mean percentage activity
Procedure: as §1

DYRK1A = DYRK1A (Homo sapiens, UniProt Q13627); settings: 0.1 µM compound, assay duplicates; read-out: residual activity of DYRK1A, mean percentage activity
Procedure: as §1

VEG-FR = settings: 0.1 µM compound, assay duplicates
Procedure: as §1

Chain of MAPKAP-K2 (P49137 whole entry): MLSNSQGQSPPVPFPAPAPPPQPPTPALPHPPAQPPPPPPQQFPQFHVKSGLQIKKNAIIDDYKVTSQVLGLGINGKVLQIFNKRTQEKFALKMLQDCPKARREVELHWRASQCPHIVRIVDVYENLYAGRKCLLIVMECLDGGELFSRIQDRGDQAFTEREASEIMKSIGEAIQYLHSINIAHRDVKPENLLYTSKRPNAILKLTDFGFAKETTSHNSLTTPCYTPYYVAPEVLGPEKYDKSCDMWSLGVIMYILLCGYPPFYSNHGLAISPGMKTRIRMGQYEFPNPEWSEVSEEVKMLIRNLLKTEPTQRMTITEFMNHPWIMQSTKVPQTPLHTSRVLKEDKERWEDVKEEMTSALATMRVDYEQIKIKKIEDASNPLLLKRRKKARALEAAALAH
Chain of MARK3 (P27448 whole entry): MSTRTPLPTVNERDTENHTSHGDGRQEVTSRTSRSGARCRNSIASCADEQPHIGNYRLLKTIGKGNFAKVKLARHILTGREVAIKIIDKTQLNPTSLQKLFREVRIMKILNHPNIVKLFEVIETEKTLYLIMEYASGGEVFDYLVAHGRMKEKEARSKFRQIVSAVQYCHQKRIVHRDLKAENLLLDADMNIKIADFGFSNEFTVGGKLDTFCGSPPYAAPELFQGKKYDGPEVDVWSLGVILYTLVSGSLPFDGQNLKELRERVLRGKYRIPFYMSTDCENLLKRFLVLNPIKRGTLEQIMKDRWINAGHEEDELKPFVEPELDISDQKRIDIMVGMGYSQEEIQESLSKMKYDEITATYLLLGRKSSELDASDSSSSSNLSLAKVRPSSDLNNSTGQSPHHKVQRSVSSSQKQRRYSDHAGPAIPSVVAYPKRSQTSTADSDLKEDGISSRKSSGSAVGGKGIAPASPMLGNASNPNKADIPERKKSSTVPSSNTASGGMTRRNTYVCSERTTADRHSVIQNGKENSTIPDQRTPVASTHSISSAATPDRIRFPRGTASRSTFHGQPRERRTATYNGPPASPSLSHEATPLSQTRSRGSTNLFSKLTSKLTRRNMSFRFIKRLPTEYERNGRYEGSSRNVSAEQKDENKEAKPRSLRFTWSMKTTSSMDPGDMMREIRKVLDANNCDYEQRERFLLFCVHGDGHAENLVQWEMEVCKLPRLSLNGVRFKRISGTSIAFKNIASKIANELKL
Chain of YES1 (P07947 whole entry): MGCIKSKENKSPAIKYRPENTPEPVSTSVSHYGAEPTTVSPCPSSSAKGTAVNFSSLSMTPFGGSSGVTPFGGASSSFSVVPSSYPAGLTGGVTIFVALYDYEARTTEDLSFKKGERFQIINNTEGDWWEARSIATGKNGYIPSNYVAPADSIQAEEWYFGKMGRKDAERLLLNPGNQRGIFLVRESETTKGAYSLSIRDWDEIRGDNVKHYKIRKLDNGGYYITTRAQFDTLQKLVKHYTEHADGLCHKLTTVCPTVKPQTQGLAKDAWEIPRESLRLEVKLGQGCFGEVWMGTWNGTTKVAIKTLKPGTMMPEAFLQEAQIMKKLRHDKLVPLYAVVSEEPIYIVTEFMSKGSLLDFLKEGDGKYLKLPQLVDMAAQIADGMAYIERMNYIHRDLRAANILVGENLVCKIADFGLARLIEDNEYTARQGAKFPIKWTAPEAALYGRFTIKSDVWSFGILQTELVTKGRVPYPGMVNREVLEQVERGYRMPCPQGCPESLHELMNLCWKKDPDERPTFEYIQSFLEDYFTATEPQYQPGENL
Chain of CK1 (P48730 whole entry): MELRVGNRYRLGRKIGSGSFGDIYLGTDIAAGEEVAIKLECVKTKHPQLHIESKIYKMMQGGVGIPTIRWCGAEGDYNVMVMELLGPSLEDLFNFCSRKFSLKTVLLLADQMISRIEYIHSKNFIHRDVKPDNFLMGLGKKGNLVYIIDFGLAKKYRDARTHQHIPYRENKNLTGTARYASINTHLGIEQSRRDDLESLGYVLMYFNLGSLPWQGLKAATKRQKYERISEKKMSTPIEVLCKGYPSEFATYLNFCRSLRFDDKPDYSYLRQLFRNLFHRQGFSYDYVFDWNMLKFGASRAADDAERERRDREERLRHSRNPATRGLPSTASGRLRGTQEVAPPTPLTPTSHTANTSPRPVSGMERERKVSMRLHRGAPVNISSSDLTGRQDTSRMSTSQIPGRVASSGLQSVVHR
Chain of PKBb (P31751 whole entry): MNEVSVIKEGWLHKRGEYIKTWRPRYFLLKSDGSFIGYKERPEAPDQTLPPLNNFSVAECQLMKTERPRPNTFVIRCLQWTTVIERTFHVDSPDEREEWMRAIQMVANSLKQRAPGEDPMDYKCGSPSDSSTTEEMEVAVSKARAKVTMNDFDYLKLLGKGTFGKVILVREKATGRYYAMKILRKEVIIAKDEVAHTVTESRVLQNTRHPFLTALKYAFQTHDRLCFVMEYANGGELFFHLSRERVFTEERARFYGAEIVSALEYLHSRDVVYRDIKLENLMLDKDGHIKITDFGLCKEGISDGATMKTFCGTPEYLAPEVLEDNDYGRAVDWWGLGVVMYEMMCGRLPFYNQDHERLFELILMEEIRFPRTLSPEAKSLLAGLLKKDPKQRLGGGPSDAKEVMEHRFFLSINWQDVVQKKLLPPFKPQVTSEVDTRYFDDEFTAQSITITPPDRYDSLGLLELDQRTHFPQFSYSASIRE
Chain of PRAK (Q8IW41 whole entry): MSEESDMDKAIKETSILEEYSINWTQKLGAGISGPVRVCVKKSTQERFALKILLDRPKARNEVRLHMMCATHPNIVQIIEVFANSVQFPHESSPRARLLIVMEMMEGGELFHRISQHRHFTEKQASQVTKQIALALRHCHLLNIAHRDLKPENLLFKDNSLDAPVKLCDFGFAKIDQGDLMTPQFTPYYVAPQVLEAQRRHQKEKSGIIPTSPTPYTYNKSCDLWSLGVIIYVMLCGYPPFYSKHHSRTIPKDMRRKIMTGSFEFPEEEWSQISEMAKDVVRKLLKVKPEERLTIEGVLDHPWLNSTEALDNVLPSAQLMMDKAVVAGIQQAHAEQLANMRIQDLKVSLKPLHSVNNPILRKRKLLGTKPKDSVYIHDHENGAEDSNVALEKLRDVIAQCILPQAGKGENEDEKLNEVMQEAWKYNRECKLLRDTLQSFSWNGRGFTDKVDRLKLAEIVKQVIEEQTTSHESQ
Chain of PDK1 (O15530 whole entry): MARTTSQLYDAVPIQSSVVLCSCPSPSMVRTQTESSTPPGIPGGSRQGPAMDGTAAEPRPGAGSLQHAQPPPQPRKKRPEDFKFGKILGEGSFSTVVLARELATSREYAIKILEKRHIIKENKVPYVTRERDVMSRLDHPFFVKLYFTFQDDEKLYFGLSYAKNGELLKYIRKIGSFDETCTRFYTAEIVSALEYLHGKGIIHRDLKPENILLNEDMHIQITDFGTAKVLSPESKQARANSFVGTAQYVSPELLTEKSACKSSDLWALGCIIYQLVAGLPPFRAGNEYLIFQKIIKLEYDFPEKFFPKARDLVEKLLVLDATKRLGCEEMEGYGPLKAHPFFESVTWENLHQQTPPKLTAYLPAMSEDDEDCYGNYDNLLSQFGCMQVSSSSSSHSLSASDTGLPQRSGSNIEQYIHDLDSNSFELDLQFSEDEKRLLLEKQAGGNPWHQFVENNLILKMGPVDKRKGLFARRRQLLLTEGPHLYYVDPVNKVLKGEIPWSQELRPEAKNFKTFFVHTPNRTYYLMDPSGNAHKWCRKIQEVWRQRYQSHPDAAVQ
Chain of P38b MAPK (Q15759 whole entry): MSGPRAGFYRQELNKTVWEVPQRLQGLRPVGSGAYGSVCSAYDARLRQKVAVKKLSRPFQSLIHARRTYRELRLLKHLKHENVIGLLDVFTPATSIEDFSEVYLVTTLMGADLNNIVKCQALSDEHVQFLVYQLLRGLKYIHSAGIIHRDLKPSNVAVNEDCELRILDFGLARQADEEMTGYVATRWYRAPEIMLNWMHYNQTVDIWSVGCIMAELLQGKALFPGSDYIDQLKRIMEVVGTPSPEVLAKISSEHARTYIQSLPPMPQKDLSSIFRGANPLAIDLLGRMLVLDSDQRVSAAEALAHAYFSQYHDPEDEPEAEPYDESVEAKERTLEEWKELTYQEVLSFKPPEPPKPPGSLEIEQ
Chain of SRPK1 (Q96SB4 whole entry): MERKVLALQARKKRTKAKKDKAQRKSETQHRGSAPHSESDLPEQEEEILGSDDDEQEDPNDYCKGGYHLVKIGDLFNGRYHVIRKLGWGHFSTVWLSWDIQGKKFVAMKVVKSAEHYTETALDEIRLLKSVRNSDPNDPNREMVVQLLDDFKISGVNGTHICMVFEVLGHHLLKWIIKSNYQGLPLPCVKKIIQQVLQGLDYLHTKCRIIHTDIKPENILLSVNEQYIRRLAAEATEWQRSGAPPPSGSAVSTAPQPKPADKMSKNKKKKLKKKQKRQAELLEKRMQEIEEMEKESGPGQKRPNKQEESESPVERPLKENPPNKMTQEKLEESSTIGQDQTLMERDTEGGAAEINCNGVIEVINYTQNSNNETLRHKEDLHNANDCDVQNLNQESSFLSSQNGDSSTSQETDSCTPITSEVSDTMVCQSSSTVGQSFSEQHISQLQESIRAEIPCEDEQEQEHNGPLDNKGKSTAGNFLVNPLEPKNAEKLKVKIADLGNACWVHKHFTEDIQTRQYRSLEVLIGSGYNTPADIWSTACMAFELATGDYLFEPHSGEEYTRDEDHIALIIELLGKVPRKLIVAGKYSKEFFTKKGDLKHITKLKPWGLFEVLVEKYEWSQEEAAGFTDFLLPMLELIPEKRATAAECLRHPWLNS

SMILES | residual activity of AMPK, mean percentage activity (AMPK) | remaining activity at 0.1 µM (CHK2) | remaining activity at 0.1 µM (p38s MAPK) | remaining activity at 0.1 µM (MNK1) | remaining activity at 0.1 µM (YES1) | remaining activity at 0.1 µM (PAK5) | remaining activity at 0.1 µM (PKBb) | remaining activity at 0.1 µM (DYRK3) | remaining activity at 0.1 µM (P38b MAPK) | remaining activity at 0.1 µM (SRPK1) | remaining activity at 0.1 µM (BRSK2) | remaining activity at 0.1 µM (RSK1) | remaining activity at 0.1 µM (PRAK) | remaining activity at 0.1 µM (MNK2) | remaining activity at 0.1 µM (EPH-B3) | remaining activity at 0.1 µM (Aurora B) | remaining activity at 0.1 µM (PDK1) | remaining activity at 0.1 µM (CK1) | remaining activity at 0.1 µM (CAMK1) | remaining activity at 0.1 µM (S6K1) | other results
COc1cc2c3c(c4c5ccccc5[nH]c4c2c(OC)c1OC)C(=O)NC3=O [Compound 3, 5,6,7-Trimethoxybenzo[a]pyrrolo[3,4-c]carbazole-1,3(2H,8H)-dione] | 75% | 63% | 90% | 79% | 88% | 84% | 91% | 46% | 89% | 83% | 66% | 51% | 85% | 81% | 133% | 47% | 39% | 78% | 94% | 28% | remaining activity at 0.1 µM (MARK3): 73%; remaining activity at 0.1 µM (PIM3): 4%; remaining activity at 0.1 µM (DYRK2): 17%; remaining activity at 0.1 µM (PAK6): 99%; remaining activity at 0.1 µM (TBK1 (DU12569)): 73%; residual activity of PHK, mean percentage activity (PHK): 41%; remaining activity at 0.1 µM (MAPKAP-K2): 95%; remaining activity at 0.1 µM (DYRK1A): 26%; residual activity of VEG-FR, mean percentage activity (VEG-FR): 37%
COc1cc(C2=C(c3c[nH]c4ccccc34)C(=O)NC2=O)cc(OC)c1OC [Compound 1, 3-(1H-Indol-3-yl)-4-(3,4,5-trimethoxyphenyl)-1H-pyrrole-2,5-dione] | 78% | 64% | 108% | 80% | 84% | 105% | 98% | 85% | 86% | 85% | 94% | 96% | 91% | 90% | 104% | 84% | 68% | 86% | 107% | 65% | remaining activity at 0.1 µM (MARK3): 90%; remaining activity at 0.1 µM (PIM3): 5%; remaining activity at 0.1 µM (DYRK2): 57%; remaining activity at 0.1 µM (PAK6): 97%; remaining activity at 0.1 µM (TBK1 (DU12569)): 88%; residual activity of PHK, mean percentage activity (PHK): 73%; remaining activity at 0.1 µM (MAPKAP-K2): 94%; remaining activity at 0.1 µM (DYRK1A): 73%; residual activity of VEG-FR, mean percentage activity (VEG-FR): 10%
